The values that follow come from patent US12180207B2 (ARRAY BIOPHARMA INC., priority 2018, dated 2024).

For assay [1], the target named is FGFR1 (SEQ ID NO: 1, amino acids 458-765) (Homo sapiens (Human), UniProt P11362). Briefly: LC/MS FGFR1 kobs assay (covalent protein modification). Format: binding. The following applies: 500 nM FGFR1, 3 μM compound. An outline of the steps:
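Covalent labeling of FGFR1 kinase domain (aa 458-765) tracked over time by intact-protein LC/MS after formic acid quench. kobs derived by fitting DMSO-normalized percent unmodified FGFR1 to an exponential decay model.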

The target of assay [2] is recombinant human FGFR3 (amino acids R397-T806) (Homo sapiens (Human), UniProt P22607). Briefly: FGFR3 enzyme activity assay (LanthaScreen TR-FRET). It counts as biochemical. The conditions noted are these: 25 μM ATP, 10 min incubation at 22° C., average of multiple determinations if made, read-out: FGFR3 Enz FRET IC50. An outline of the steps:
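GST-HIS6-tagged human FGFR3 (R397-T806) was reacted with 100 nM Alexa Fluor 647-Poly-GT substrate and 25 μM ATP plus compound in HEPES/MgCl2/Triton buffer, pH 7.5, 2% DMSO, for 10 min at 22 °C.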

Assay [3] addresses phosphorylated FGFR3 (SEQ ID NO: 5, amino acids 449 to 759) (Homo sapiens (Human), UniProt P22607). Put plainly: FGFR enzyme binding assay (HTRF tracer displacement), FGFR3. The conditions noted are these: 5 nM phosphorylated FGFR3, average of multiple determinations if made. In short, it runs like this: (§1)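 Kinase and tracer were incubated with compound for 60 minutes at 22° C. Tracer displacement was then measured by HTRF, and results were expressed as POC with 1 μM control inhibitor defining full displacement.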

In assay [4] the target is recombinant human FGFR1 catalytic domain (amino acids 308-731) (Homo sapiens (Human), UniProt P11362). Put plainly: FGFR1 enzyme activity assay (LanthaScreen TR-FRET). It counts as biochemical. The following applies: 20 min incubation at 22° C., average of multiple determinations if made, read-out: FGFR1 Enz FRET IC50. In short, it runs like this: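 His-tagged FGFR1 kinase domain with 100 nM Alexa Fluor 647-poly-GT peptide and ATP in pH 7.5 HEPES/MgCl2 buffer with 2% DMSO, 20 min at 22 °C. Quenched with EDTA plus 2 nM Eu-PY20 antibody and read after 60 min. IC50 comes from a 4-parameter fit of percent of control.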
recombinant human FGFR1 catalytic domain (amino acids 308-731), sequence (P11362 other isoform, or with tags, fused parts or gaps): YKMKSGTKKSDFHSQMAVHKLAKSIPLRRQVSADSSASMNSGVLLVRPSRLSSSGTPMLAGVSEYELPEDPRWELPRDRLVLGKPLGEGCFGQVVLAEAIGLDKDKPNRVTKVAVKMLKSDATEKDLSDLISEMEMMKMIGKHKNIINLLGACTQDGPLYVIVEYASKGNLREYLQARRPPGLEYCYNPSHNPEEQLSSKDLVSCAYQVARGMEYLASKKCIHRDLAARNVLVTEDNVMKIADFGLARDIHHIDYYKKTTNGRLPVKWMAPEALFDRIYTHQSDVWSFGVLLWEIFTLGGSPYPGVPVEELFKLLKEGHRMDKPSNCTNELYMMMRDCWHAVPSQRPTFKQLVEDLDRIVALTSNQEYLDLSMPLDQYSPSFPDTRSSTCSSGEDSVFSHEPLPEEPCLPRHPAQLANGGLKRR
In general terms: In TR-FRET formats the signal depends on donor and acceptor labels being close together.

Assay [5] deals with dephosphorylated FGFR1 (SEQ ID NO: 1, amino acids 458 to 765) (Homo sapiens (Human), UniProt P11362). Put plainly: FGFR enzyme binding assay (HTRF tracer displacement), FGFR1. The following applies: 5 nM dephosphorylated FGFR1, average of multiple determinations if made. An outline of the steps:
as §1

Molecules are shown by their SMILES.

phosphorylated FGFR3 (SEQ ID NO: 5, amino acids 449 to 759), sequence (P22607 449-759): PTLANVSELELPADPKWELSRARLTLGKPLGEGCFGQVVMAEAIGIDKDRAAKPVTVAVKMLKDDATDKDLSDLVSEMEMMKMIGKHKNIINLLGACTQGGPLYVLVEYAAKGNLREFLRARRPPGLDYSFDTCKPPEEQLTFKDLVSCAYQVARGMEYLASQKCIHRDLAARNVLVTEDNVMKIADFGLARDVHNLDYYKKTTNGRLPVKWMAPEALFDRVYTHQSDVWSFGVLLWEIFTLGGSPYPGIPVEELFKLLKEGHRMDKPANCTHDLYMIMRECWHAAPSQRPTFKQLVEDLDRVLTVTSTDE
recombinant human FGFR3 (amino acids R397-T806), sequence (P22607 397-806): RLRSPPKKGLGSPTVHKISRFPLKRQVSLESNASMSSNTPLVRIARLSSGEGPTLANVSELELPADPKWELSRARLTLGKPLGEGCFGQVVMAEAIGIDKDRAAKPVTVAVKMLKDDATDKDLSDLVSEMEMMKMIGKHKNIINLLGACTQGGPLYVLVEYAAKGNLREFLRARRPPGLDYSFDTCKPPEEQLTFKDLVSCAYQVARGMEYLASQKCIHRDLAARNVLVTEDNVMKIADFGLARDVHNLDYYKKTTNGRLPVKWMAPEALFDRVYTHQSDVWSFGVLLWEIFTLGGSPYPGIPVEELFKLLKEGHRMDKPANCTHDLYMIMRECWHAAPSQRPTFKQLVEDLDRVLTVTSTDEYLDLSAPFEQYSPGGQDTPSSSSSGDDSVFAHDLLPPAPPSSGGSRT
FGFR1 (SEQ ID NO: 1, amino acids 458-765), sequence (P11362 458-765): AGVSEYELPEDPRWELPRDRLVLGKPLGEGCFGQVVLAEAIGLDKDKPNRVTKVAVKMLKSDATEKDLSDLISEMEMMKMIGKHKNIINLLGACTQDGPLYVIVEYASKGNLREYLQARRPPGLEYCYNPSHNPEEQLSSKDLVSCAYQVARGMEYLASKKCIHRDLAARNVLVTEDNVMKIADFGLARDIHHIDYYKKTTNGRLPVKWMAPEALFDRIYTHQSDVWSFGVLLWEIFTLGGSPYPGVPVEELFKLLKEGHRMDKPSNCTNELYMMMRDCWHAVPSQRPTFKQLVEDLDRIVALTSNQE
dephosphorylated FGFR1 (SEQ ID NO: 1, amino acids 458 to 765), sequence (P11362 458-765): as above

`C=CC(=O)N1CCC(C#N)(C(=O)N2CCC(n3cc(-c4cc(OC)c5c(C#N)cnn5c4)cn3)CC2)C1` (stereo not shown) [Example 31, 6-(1-(1-(1-acryloyl-3-cyanopyrrolidine-3-carbonyl)piperidin-4-yl)-1H-pyrazol-4-yl)-4-methoxypyrazolo[1,5-a]pyridine-3-carbonitrile]: the “FGFR1 Enz kobs” value in assay [1] was found to be 0.00146 min⁻¹. Also, the half-maximal inhibitory concentration (IC50) in assay [2] amounted to 0.002 µM; in assay [3], 0.002 µM; in assay [4], 0.008 µM; in assay [5], 0.026 µM.

As to `C=CC(=O)N1CC(C(=O)N2CCC(n3cc(-c4cc(OC)c5c(C#N)cnn5c4)cn3)CC2)C1` [Example 36, 6-(1-(1-(1-acryloylazetidine-3-carbonyl)piperidin-4-yl)-1H-pyrazol-4-yl)-4-methoxypyrazolo[1,5-a]pyridine-3-carbonitrile], the “FGFR1 Enz kobs” value in assay [1] is 0.00127 min⁻¹. The IC50 in assay [2] turned out to be 0.004 µM; in assay [3] it was 0.004 µM; in assay [4], 0.011 µM; in assay [5] it was 0.059 µM.

On to `C=CC(=O)N1CC(F)(C(=O)N2CCC(n3cc(-c4cc(OC)c5c(C#N)cnn5c4)cn3)CC2)C1` [Example 37, 6-(1-(1-(1-acryloyl-3-fluoroazetidine-3-carbonyl)piperidin-4-yl)-1H-pyrazol-4-yl)-4-methoxypyrazolo[1,5-a]pyridine-3-carbonitrile], for which the “FGFR1 Enz kobs” value in assay [1] is 0.00447 min⁻¹. Besides, the IC50 in assay [2] is 0.004 µM; in assay [3] it was 0.003 µM; in assay [4], 0.016 µM; in assay [5], 0.289 µM.

Consider `C=CC(=O)N1CC(C)(C(=O)N2CCC(n3cc(-c4cc(OC)c5c(C#N)cnn5c4)cn3)CC2)C1` [Example 38, 6-(1-(1-(1-acryloyl-3-methylazetidine-3-carbonyl)piperidin-4-yl)-1H-pyrazol-4-yl)-4-methoxypyrazolo[1,5-a]pyridine-3-carbonitrile], for which the “FGFR1 Enz kobs” value in assay [1] was determined as 0.00134 min⁻¹. Further, the IC50 in assay [2] came to 0.003 µM; in assay [3], 0.002 µM; in assay [4] it was 0.01 µM; in assay [5] it was 0.033 µM.

Regarding `C=CC(=O)N1CC(C#N)(C(=O)N2CCC(n3cc(-c4cc(OC)c5c(C#N)cnn5c4)cn3)CC2)C1` [Example 39, 6-(1-(1-(1-acryloyl-3-cyanoazetidine-3-carbonyl)piperidin-4-yl)-1H-pyrazol-4-yl)-4-methoxypyrazolo[1,5-a]pyridine-3-carbonitrile], the “FGFR1 Enz kobs” value in assay [1] is 0.01019 min⁻¹. The IC50 in assay [2] came to 0.003 µM; in assay [3], 0.002 µM; in assay [4] it was 0.011 µM; in assay [5], 0.026 µM.

Regarding `C=CC(=O)N1CC(CC)(C(=O)N2CCC(n3cc(-c4cc(OC)c5c(C#N)cnn5c4)cn3)CC2)C1` [Example 40, 6-(1-(1-(1-acryloyl-3-ethylazetidine-3-carbonyl)piperidin-4-yl)-1H-pyrazol-4-yl)-4-methoxypyrazolo[1,5-a]pyridine-3-carbonitrile], in assay [1], the “FGFR1 Enz kobs” value was 0.00138 min⁻¹. In addition, the IC50 turned out to be 0.002 µM in assay [2], 0.005 µM in assay [3], 0.009 µM in assay [4] and 0.038 µM in assay [5].

As for `C=CC(=O)N1CC(OC)(C(=O)N2CCC(n3cc(-c4cc(OC)c5c(C#N)cnn5c4)cn3)CC2)C1` [Example 41, 6-(1-(1-(1-acryloyl-3-methoxyazetidine-3-carbonyl)piperidin-4-yl)-1H-pyrazol-4-yl)-4-methoxypyrazolo[1,5-a]pyridine-3-carbonitrile], the “FGFR1 Enz kobs” value in assay [1] amounted to 0.00254 min⁻¹. The IC50 was determined as 0.002 µM in assay [2], 0.003 µM in assay [3], 0.002 µM in assay [4] and 0.061 µM in assay [5].

Take `C=CC(=O)N1CC(C(=O)N2CCC(n3cc(-c4cc(OC)c5c(C#N)cnn5c4)cn3)CC2)C1C` (stereo not shown) [Example 42, 6-(1-(1-(1-acryloyl-2-methylazetidine-3-carbonyl)piperidin-4-yl)-1H-pyrazol-4-yl)-4-methoxypyrazolo[1,5-a]pyridine-3-carbonitrile]: the “FGFR1 Enz kobs” value in assay [1] was found to be 0.00113 min⁻¹. The IC50 in assay [2] worked out at 0.002 µM; in assay [3], 0.003 µM; in assay [4] it was 0.011 µM; in assay [5], 0.043 µM.

For the compound `C=CC(=O)N1CC(C(=O)N2CCC(n3cc(-c4cc(OC)c5c(C#N)cnn5c4)cn3)CC2)C1(C)C` (stereo not shown) [Example 43, 6-(1-(1-(1-acryloyl-2,2-dimethylazetidine-3-carbonyl)piperidin-4-yl)-1H-pyrazol-4-yl)-4-methoxypyrazolo[1,5-a]pyridine-3-carbonitrile], the “FGFR1 Enz kobs” value in assay [1] was 0.0005 min⁻¹. In addition, the IC50 was found to be 0.002 µM in assay [2], 0.004 µM in assay [3], 0.006 µM in assay [4] and 0.054 µM in assay [5].

Take `C=CC(=O)N1CC(C(=O)N2C3CCC2CN(c2ccc(-c4cc(OC)c5c(C#N)cnn5c4)cn2)C3)C1` [Example 50, 6-(6-(8-(1-acryloylazetidine-3-carbonyl)-3,8-diazabicyclo[3.2.1]octan-3-yl)pyridin-3-yl)-4-methoxypyrazolo[1,5-a]pyridine-3-carbonitrile]: the “FGFR1 Enz kobs” value in assay [1] stood at 0.00381 min⁻¹. For the same compound, the IC50 in assay [2] was 0.01 µM; in assay [3] it was 0.003 µM; in assay [4] it was 0.024 µM; in assay [5], 0.027 µM.

Consider `C=CC(=O)N1CC(C(=O)N2CC3CCC(C2)N3c2ccc(-c3cc(OC)c4c(C#N)cnn4c3)cn2)C1` [Example 51, 6-(6-(3-(1-acryloylazetidine-3-carbonyl)-3,8-diazabicyclo[3.2.1]octan-8-yl)pyridin-3-yl)-4-methoxypyrazolo[1,5-a]pyridine-3-carbonitrile], for which the “FGFR1 Enz kobs” value in assay [1] came to 0.00338 min⁻¹. The IC50 in assay [2] worked out at 0.022 µM; in assay [3], 0.009 µM; in assay [4], 0.034 µM; in assay [5], 0.07 µM.

Take `C=CC(=O)N1CC(C(=O)N2C3CC2CN(c2ccc(-c4cc(OC)c5c(C#N)cnn5c4)cn2)C3)C1` [Example 52, 6-(6-(6-(1-acryloylazetidine-3-carbonyl)-3,6-diazabicyclo[3.1.1]heptan-3-yl)pyridin-3-yl)-4-methoxypyrazolo[1,5-a]pyridine-3-carbonitrile]: the “FGFR1 Enz kobs” value in assay [1] is 0.00086 min⁻¹. The IC50 in assay [2] turned out to be 0.034 µM; in assay [3] it was 0.014 µM; in assay [4], 0.066 µM; in assay [5] it was 0.086 µM.

Regarding `C=CC(=O)Nc1ccc(C(=O)N2CC[C@@H](n3cc(-c4cc(OC)c5c(C#N)cnn5c4)cn3)C2)cc1` [Example 55, (R)-N-(4-(3-(4-(3-cyano-4-methoxypyrazolo[1,5-a]pyridin-6-yl)-1H-pyrazol-1-yl)pyrrolidine-1-carbonyl)phenyl)acrylamide], the “FGFR1 Enz kobs” value in assay [1] is 0.00277 min⁻¹. Moreover, the IC50 in assay [2] was 0.009 µM; in assay [3], 0.007 µM; in assay [4] it was 0.019 µM; in assay [5], 0.098 µM.

As to `C=CC(=O)Nc1cccc(C(=O)N2CC[C@@H](n3cc(-c4cc(OC)c5c(C#N)cnn5c4)cn3)C2)c1` [Example 56, (R)-N-(3-(3-(4-(3-cyano-4-methoxypyrazolo[1,5-a]pyridin-6-yl)-1H-pyrazol-1-yl)pyrrolidine-1-carbonyl)phenyl)acrylamide], in assay [1], the “FGFR1 Enz kobs” value was determined as 0.00181 min⁻¹. In addition, the IC50 in assay [2] is 0.01 µM; in assay [3] it was 0.018 µM; in assay [4] it was 0.028 µM; in assay [5] it was 0.135 µM.

Broadly, the IC50 is the concentration at which inhibition is half-maximal.
